Assay results as given in patent US20180228801A1, “Method for Enhancing Learning Ability and Memory of Patients with Alzheimer's Disease using Mocetinostat” (National Taiwan Normal University, priority 2017, published 2018).

Tests used:
[1] = tested on: primary hippocampus neurons; test: Primary hippocampus neurons damaged by oligomeric Aβ25-35, immune-fluorescent staining (NeuN, MAP2); assay type: cell-based, mouse (C57BL/6J); conditions: 48 hours after 50 μM oligomeric Aβ25-35, vs group treated with Aβ25-35
Experimental: The method of culturing mouse primary hippocampus neurons follow from a modified method from the prior art (Seibenhener and Wooten, 2012), including: obtaining a 16-18 day old embryo from a C57BL/6J strain pregnant female mouse after euthanasia, obtaining hippocampus tissue of the embryo and digesting the tissue with 0.05% trypsin at 37° C. for 15 minutes, and seeding 3×10^4 cells per well in a 48-well plate coated with Poly-L-lysine (100 μg/mL); wherein the components of the medium includes: Neurobasal Medium® (Gibco™; ThermoFisher Scientific, USA) adding 2% of B-27® Additive (Gibco™; ThermoFisher), 0.5 mM of glutamine (Gibco™; ThermoFisher), 25 μM of glutamate (Sigma-Aldrich, USA), 20 unit/mL of penicillin/streptomycin solution (Gibco™; ThermoFisher Scientific, USA), 1 mM of 4-(2-hydroxyethyl)-1-piperazineethanesulfonic acid) (HEPES) (Sigma-Aldrich), and 1% of heat inactivated Donor Horse Serum (Gibco™; ThermoFisher). Primary hippocampus neurons are cultured in an incubator in an environment of 37° C. and 5% CO2.
In some embodiments, experiments should be performed when said cells are in an Alzheimer's disease state. […] Further, 50 μM of oligomeric Aβ25-35 are applied for 1 hour, and then a high dose (70 nM) and low dose (35 nm) of MGCD0103 is applied for 48 hours on day 9. Finally, the cells are collected for immune-fluorescent staining.
The collected cells are analyzed with immune-fluorescence staining. First, fixing the cells with 4% of paraformaldehyde (PFA) (Sigma-Aldrich) for 30 minutes; rinsing the cells three times with PBST with a time interval of 10 minutes so as to remove remaining PFA; blocking the cells with 10% fetal bovine serum (FBS) for 2 hours; adding NeuN (1:1000; Milipore, USA) and MAP2 (1:1000; Milipore, USA) primary antibodies and allowing reaction at 4° C. for 16 hours; then allowing reaction with secondary antibodies at 37° C. for 2 hours; finally, staining nucleus with […] (DAPI) (Sigma-Aldrich) and analyzing to obtain values such as numbers of neurons, lengths of synapses, and numbers of branches with a High Content Micro-Imaging Acquisition and Screening System and MetaXpress (purchased from Molecular Devices).

[2] = tested on: mice with oligomeric Aβ25-35 injected into bilateral hippocampal CA1; test: Y-Maze Activity Test; assay type: in vivo, mice (C57BL/6J); conditions: Aβ25-35 mice, high dose 0.5 mg/kg i.p. once a day
Experimental: Further, in some embodiments of the present invention, C57BL/6J strain male mice (12 week old) are used as a subject in need. After mice are allowed to adapt to the environment for 6 days, mice are anesthetized with Avertin (0.4 g/kg; purchased from Sigma). The mice are fixed on a stereotactic apparatus for operation, followed by injecting oligomeric Aβ25-35 (10 nM, 3 μL) into bilateral hippocampal CA1 (AP: […] relative to the bregma; ML: ±[…] relative to the midline; DV: […] relative to the skull) on day 7. MGCD0103 and equal volume of vehicle (saline) are intraperitoneal (i.p.) injected once a day from day 8, the day after said operation, for 29 days. […]
Y-Maze Activity Test is a test that takes advantage of the characteristic that mice tend to explore an unfamiliar environment, so that the short-term spatial memory of mice can be measured by means of a Y-maze module arranged with three arms (35 cm×5 cm×20 cm) formed of white acrylic. The mice are placed in the middle of the three arms of the Y-Maze, and the mice are allowed to freely and spontaneously explore for 8 minutes, wherein one count is recorded when four limbs of the mice completely enter any one of the three arms. […]

synaptophysin = test: Western blot, synaptophysin; assay type: in vivo, mice (C57BL/6J); conditions: Aβ25-35 mice, hippocampus
Experimental: (§1) Further, in some embodiments of the present invention, C57BL/6J strain male mice (12 week old) are used as a subject in need. After mice are allowed to adapt to the environment for 6 days, mice are anesthetized with Avertin (0.4 g/kg; purchased from Sigma). The mice are fixed on a stereotactic apparatus for operation, followed by injecting oligomeric Aβ25-35 (10 nM, 3 μL) into bilateral hippocampal CA1 (AP: […] relative to the bregma; ML: ±[…] relative to the midline; DV: […] relative to the skull) on day 7. MGCD0103 and equal volume of vehicle (saline) are intraperitoneal (i.p.) injected once a day from day 8, the day after said operation, for 29 days. On day 24, the Open Field Test is performed; on day 26, the EPM is performed; on day 28, the Y-maze is performed; on days 30 to 36, MWM is performed; and on day 37, mice are euthanized for pathological analysis.

PSD95 = test: Western blot, PSD95; assay type: in vivo, mice (C57BL/6J); conditions: hippocampus
Experimental: as §1

inactivated GSK3β (pS9) = test: Western blot, inactivated GSK3β (pS9); assay type: in vivo, mice (C57BL/6J); conditions: Aβ25-35 mice, hippocampus
Experimental: as §1

[3] = tested on: Aβ accumulation in hippocampal CA1; test: Immunohistochemical staining, Aβ accumulation (6E10); assay type: in vivo, mice (C57BL/6J); conditions: Aβ25-35 mice
Experimental: as §1
(§2) The inventor collects the brain tissue by perfusion followed by fixing and dehydrating, then, 30 μm frozen sections are obtained by a freezing microtome (CMS3050S, Leica). […] After that, avidin-biotin complex (ABC) is detected 1 hour after staining. […] After all sections have been stained, they are then fixed on a slide, dried, dehydrated, mounted, and photographed for quantity (performed by Image Pro Plus, Meida Cyberetics, USA).

[4] = tested on: IDE (Aβ degrading enzyme); test: Western blot, IDE; assay type: in vivo, mice (C57BL/6J); conditions: Aβ25-35 mice, hippocampus
Experimental: as §1

[5] = tested on: NEP (Aβ degrading enzyme); test: Western blot, NEP; assay type: in vivo, mice (C57BL/6J); conditions: hippocampus
Experimental: as §1

astrocytes = test: Immunohistochemical staining, astrocytes in hippocampus; assay type: in vivo, mice (C57BL/6J); conditions: Aβ25-35 mice
Experimental: as §1, §2

activated microglia = test: Immunohistochemical staining, activated microglia in hippocampus; assay type: in vivo, mice (C57BL/6J); conditions: Aβ25-35 mice
Experimental: as §1, §2

[6] = tested on: cholinergic neurons in medial septum/diagonal band (MS/DB); test: Immunohistochemical staining, cholinergic neurons (ChAT); assay type: in vivo, mice (C57BL/6J); conditions: saline-injected mice; Mean±SEM
Experimental: as §1
as §2, with “USA). […]” for “USA).”

[7] = tested on: serotonergic neurons in Raphe nucleus; test: Immunohistochemical staining, serotonergic neurons (5HT); assay type: in vivo, mice (C57BL/6J); conditions: saline-injected mice; Mean±SEM
Experimental: as §1
as §2, with “USA). […]” for “USA).”

Nc1ccccc1NC(=O)c1ccc(CNc2nccc(-c3cccnc3)n2)cc1 [MGCD0103, N-(2-Aminophenyl)-4-[[(4-pyridin-3-ylpyrimidin-2-yl)amino]methyl] benzamide]
lengths of neurites ([1]; high dose (70 nM)): significantly improved
numbers of neuron cells (NeuN+) ([1]; high dose (70 nM)): significantly improved
lengths of neurites ([1]; low dose (35 nM)): significantly improved
numbers of neuron cells (NeuN+) ([1]; low dose (35 nM)): significantly improved
spontaneous alternation rate (short-term memory) [2]: significantly increased
expression of synaptophysin (synaptophysin): significantly increased
expression of PSD95 (PSD95): no significant difference
expression of inactivated GSK3β (pS9) (inactivated GSK3β (pS9)): considerably increased
Aβ accumulation within the hippocampal CA1 [3]: relieved
expression of IDE protein [4]: significantly increased
expression of NEP [5]: do not have significant difference
numbers of astrocytes (astrocytes): significantly decrease
numbers of activated microglia (activated microglia): significantly decrease
ChAT, numbers of cholinergic neurons [6]: 52.75 ± 8.27
5HT, numbers of serotonergic neurons [7]: 21.43 ± 1.32
